# In patent US8134015B2, “Compound inhibiting in vivo phosphorous transport and medicine containing the same” (Kyowa Hakko Kirin Co., Ltd., priority 2003, dated 2012):
# Molecular target: T1, rat NaPi-2b (Rattus norvegicus, UniProt Q9JJ09)
# T1 construct: expressed in transfected cells; host or cells: Xenopus oocytes injected with cRNA
# T1 sequence (Q9JJ09 1-695): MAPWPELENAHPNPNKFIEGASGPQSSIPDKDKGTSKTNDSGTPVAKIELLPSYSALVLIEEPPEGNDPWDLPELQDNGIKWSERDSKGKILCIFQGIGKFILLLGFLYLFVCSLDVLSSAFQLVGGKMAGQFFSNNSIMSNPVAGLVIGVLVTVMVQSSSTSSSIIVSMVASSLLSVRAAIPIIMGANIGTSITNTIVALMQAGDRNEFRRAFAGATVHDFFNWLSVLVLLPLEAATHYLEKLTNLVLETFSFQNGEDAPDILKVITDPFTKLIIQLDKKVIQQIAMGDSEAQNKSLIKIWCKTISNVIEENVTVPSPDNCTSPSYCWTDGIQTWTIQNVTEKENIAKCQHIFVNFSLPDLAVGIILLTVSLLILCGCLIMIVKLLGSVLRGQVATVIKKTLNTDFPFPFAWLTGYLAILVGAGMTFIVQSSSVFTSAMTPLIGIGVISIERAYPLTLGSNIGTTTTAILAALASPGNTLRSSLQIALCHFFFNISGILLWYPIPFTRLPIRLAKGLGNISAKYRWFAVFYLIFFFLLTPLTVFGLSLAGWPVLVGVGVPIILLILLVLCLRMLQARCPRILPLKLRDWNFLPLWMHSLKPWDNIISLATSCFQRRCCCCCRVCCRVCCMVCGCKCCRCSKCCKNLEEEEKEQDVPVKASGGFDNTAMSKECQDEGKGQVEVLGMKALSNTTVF
# Experiment: Sodium-dependent phosphate uptake of Xenopus oocytes which expressed NaPi-2b (32P)
# Assay type: cell-based
# Conditions: Xenopus oocytes expressing rat NaPi-2b, 32P radioactive phosphorus; read-out: IC50 (phosphate uptake inhibitory activity)
# Method: Pharmacological Test Example 1
# Experiment of Sodium-Dependent Phosphate Uptake of Xenopus oocytes which Expressed NaPi-2b
# Degenerate primers were prepared from sequences of mouse NaPi-2b disclosed in Hilfiker H. et al., Pro Natl Acad Sci USA, 95 (24): 14564-14569, […] and sequences of human and rat NaPi-2a disclosed in Magagnin S. et al., Proc Natl Aca Sci USA, 90 (13): 5979-5983, 1993. RNA was extracted from the rat small intestine using ISOGEN; manufactured by NIPPON GENE CO., LTD (Japan). 400 bp gene fragments were obtained by PCR using, as a template, a cDNA library prepared with a cDNA synthesis kit (manufactured by STRATAGENE (US)). Thereafter, the above rat small intestine cDNA library was screened using the gene fragment as a probe, and the whole gene sequence of rat NaPi-2b was cloned. cRNA was synthesized from the cloned rat NaPi-2b cDNA with a cRNA synthesis kit (manufactured by Ambion (US)). The synthesized cRNA was injected into Xenopus oocytes (obtained from COPACETIC (Japan)) with a liquid microinjector (manufactured by Drummond (US)) and was cultured for 2 days to express rat NaPi-2b. Thereafter, for a group of derivatives, phosphate uptake inhibitory activity were measured using the Xenopus oocytes with ^32P radioactive phosphorus (manufactured by Daiichi Kagaku Inc. (Japan)). […] The inhibitory activity for 300 μM and 100 μM was determined from the same inhibition curve and expressed in percentage inhibition (%) in Table 5.
row,Structure (SMILES),IC50 [µM]
1,"COc1ccc(C(=O)Nc2ccccc2C(=O)N/N=C/c2cccc(Cl)c2)cc1OC [Compound 35, N-[2-(3-Chloro-benzylidene-hydrazinocarbonyl)-phenyl]-3,4-dimethoxy-benzamide]",3.23
2,"COc1ccc(C(=O)Nc2ccccc2C(=O)N/N=C/c2cc(C)c(O)c(C)c2)cc1OC [Compound 36, N-[2-(4-Hydroxy-3,5-dimethyl-benzylidene-hydrazinocarbonyl)-phenyl]-3,4-dimethoxy-benzamide]",4.04
3,"CCOc1cc(/C=N/NC(=O)c2ccccc2NC(=O)c2ccc(OC)c(OC)c2)ccc1O [Compound 37, N-[2-(3-Ethoxy-4-hydroxy-benzylidene-hydrazinocarbonyl)-phenyl]-3,4-dimethoxy-benzamide]",13.5
4,"O=C(Nc1ccccc1C(=O)N/N=C/c1ccc(F)cc1)c1ccccc1F [Compound 38, 2-Fluoro-N-[2-(4-fluoro-benzylidene-hydrazinocarbonyl)-phenyl]-benzamide]",5.64
5,"O=C(Nc1ccccc1C(=O)N/N=C/c1cccc(O)c1)c1ccccc1F [Compound 39, 2-Fluoro-N-[2-(3-hydroxy-benzylidene-hydrazinocarbonyl)-phenyl]-benzamide]",9.24
6,"Cc1ccc(/C=N/NC(=O)c2ccccc2NC(=O)c2ccccc2F)cc1 [Compound 40, 2-Fluoro-N-[2-(4-methyl-benzylidene-hydrazinocarbonyl)-phenyl]-benzamide]",2.03
7,"COc1ccc(C(=O)Nc2ccccc2C(=O)N/N=C/c2ccc(Cl)c(C(F)(F)F)c2)cc1OC [Compound 41, N-[2-(4-Chloro-3-trifluoromethyl-benzylidene-hydrazinocarbonyl)-phenyl]-3,4-dimethoxy-benzamide]",2.43
8,"COc1ccc(C(=O)Nc2ccccc2C(=O)N/N=C/c2ccc(O)c(C)c2)cc1OC [Compound 42, N-[2-(4-Hydroxy-3-methyl-benzylidene-hydrazinocarbonyl)-phenyl]-3,4-dimethoxy-benzamide]",8.21
9,"COc1ccc(C(=O)Nc2ccccc2C(=O)N/N=C/c2cc(C)ccc2C)cc1OC [Compound 43, N-[2-(2,5-Dimethyl-benzylidene-hydrazinocarbonyl)-phenyl]-3,4-dimethoxy-benzamide]",20.7
10,"COc1ccc(C(=O)Nc2ccccc2C(=O)N/N=C/c2cc(C(F)(F)F)ccc2F)cc1OC [Compound 44, N-[2-(2-Fluoro-5-trifluoromethyl-benzylidene-hydrazinocarbonyl)-phenyl]-3,4-dimethoxy-benzamide]",4.71
11,"Cc1cc(/C=N/NC(=O)c2ccccc2NC(=O)c2ccccc2F)ccc1O [Compound 45, 2-Fluoro-N-[2-(4-hydroxy-3-methyl-benzylidene-hydrazinocarbonyl)-phenyl]-benzamide]",26.1
12,"Cc1ccc(C)c(/C=N/NC(=O)c2ccccc2NC(=O)c2ccccc2F)c1 [Compound 46, N-[2-(2,5-Dimethyl-benzylidene-hydrazinocarbonyl)-phenyl]-2-fluoro-benzamide]",7.41
13,"COc1ccc(C(=O)Nc2ccccc2C(=O)N/N=C/c2cccc(F)c2)cc1 [Compound 47, N-[2-(3-Fluoro-benzylidene-hydrazinocarbonyl)-phenyl]-4-methoxy-benzamide]",4.38
14,"COc1ccc(C(=O)Nc2ccccc2C(=O)N/N=C/c2ccc(F)cc2)cc1 [Compound 48, N-[2-(4-Fluoro-benzylidene-hydrazinocarbonyl)-phenyl]-4-methoxy-benzamide]",2.07
15,"COc1ccc(C(=O)Nc2ccccc2C(=O)N/N=C/c2cccc(C)c2)cc1 [Compound 49, 4-Methoxy-N-[2-(3-methyl-benzylidene-hydrazinocarbonyl)-phenyl]-benzamide]",3.37
16,"COc1ccc(C(=O)Nc2ccccc2C(=O)N/N=C/c2cccc(O)c2)cc1 [Compound 50, N-[2-(3-Hydroxy-benzylidene-hydrazinocarbonyl)-phenyl]-4-methoxy-benzamide]",19.5

row,Structure (SMILES),IC50 [µM]
1,"COc1ccc(C(=O)Nc2ccccc2C(=O)N/N=C/c2ccc(C)cc2)cc1 [Compound 51, 4-Methoxy-N-[2-(4-methyl-benzylidene-hydrazinocarbonyl)-phenyl]-benzamide]",4.6
2,"C=CCOc1ccc(/C=N/NC(=O)c2ccccc2NC(=O)c2ccc(OC)c(OC)c2)cc1 [Compound 52, N-[2-(4-Allyloxy-benzylidene-hydrazinocarbonyl)-phenyl]-3,4-dimethoxy-benzamide]",10.4
3,"COc1cc(/C=N/NC(=O)c2ccccc2NC(=O)c2ccc(OC)c(OC)c2)cc(OC)c1 [Compound 53, N-[2-(3,5-Dimethoxy-benzylidene-hydrazinocarbonyl)-phenyl]-3,4-dimethoxy-benzamide]",4.05
4,"COc1ccc(C(=O)Nc2ccccc2C(=O)N/N=C/c2cccc(Oc3cccc(C(F)(F)F)c3)c2)cc1OC [Compound 54, 3,4-Dimethoxy-N-{2-[3-(3-trifluoromethyl-phenoxy)-benzylidene-hydrazinocarbonyl]-phenyl}-benzamide]",6.45
5,"COc1cc(OC)cc(C(=O)Nc2ccccc2C(=O)N/N=C/c2cccc(F)c2)c1 [Compound 55, N-[2-(3-Fluoro-benzylidene-hydrazinocarbonyl)-phenyl]-3,5-dimethoxy-benzamide]",0.86
6,"COc1cc(OC)cc(C(=O)Nc2ccccc2C(=O)N/N=C/c2ccc(F)cc2)c1 [Compound 56, N-[2-(4-Fluoro-benzylidene-hydrazinocarbonyl)-phenyl]-3,5-dimethoxy-benzamide]",0.89
7,"COc1cc(OC)cc(C(=O)Nc2ccccc2C(=O)N/N=C/c2ccc(C)cc2)c1 [Compound 57, 3,5-Dimethoxy-N-[2-(4-methyl-benzylidene-hydrazinocarbonyl)-phenyl]-benzamide]",1.02
8,"COc1cc(OC)cc(C(=O)Nc2ccccc2C(=O)N/N=C/c2cccc(O)c2)c1 [Compound 58, N-[2-(3-Hydroxy-benzylidene-hydrazinocarbonyl)-phenyl]-3,5-dimethoxy-benzamide]",7.67
9,"COc1ccc(C(=O)Nc2ccc(Br)cc2C(=O)N/N=C/c2cccc(Cl)c2)cc1OC [Compound 59, N-[4-Bromo-2-(3-chloro-benzylidene-hydrazinocarbonyl)-phenyl]-3,4-dimethoxy-benzamide]",1.22
10,"COc1ccc(C(=O)Nc2ccc(Br)cc2C(=O)N/N=C/c2ccc(Cl)cc2)cc1OC [Compound 60, N-[4-Bromo-2-(4-chloro-benzylidene-hydrazinocarbonyl)-phenyl]-3,4-dimethoxy-benzamide]",1.58
11,"COc1ccc(C(=O)Nc2ccc(Br)cc2C(=O)N/N=C/c2ccc(F)cc2)cc1OC [Compound 61, N-[4-Bromo-2-(4-fluoro-benzylidene-hydrazinocarbonyl)-phenyl]-3,4-dimethoxy-benzamide]",0.31
12,"COc1ccc(C(=O)Nc2ccc(Br)cc2C(=O)N/N=C/c2ccc(C)cc2)cc1OC [Compound 62, N-[4-Bromo-2-(4-methyl-benzylidene-hydrazinocarbonyl)-phenyl]-3,4-dimethoxy-benzamide]",0.9
13,"COc1ccc(C(=O)Nc2ccc(Br)cc2C(=O)N/N=C/c2cccc(O)c2)cc1OC [Compound 63, N-[4-Bromo-2-(3-hydroxy-benzylidene-hydrazinocarbonyl)-phenyl]-3,4-dimethoxy-benzamide]",5.97
14,"COc1ccc(C(=O)Nc2ccc(Br)cc2C(=O)N/N=C/c2ccc(O)cc2)cc1OC [Compound 64, N-[4-Bromo-2-(4-hydroxy-benzylidene-hydrazinocarbonyl)-phenyl]-3,4-dimethoxy-benzamide]",3.77
15,"COc1ccc(C(=O)Nc2ccc(Cl)cc2C(=O)N/N=C/c2cccc(F)c2)cc1OC [Compound 65, N-[4-Chloro-2-(3-fluoro-benzylidene-hydrazinocarbonyl)-phenyl]-3,4-dimethoxy-benzamide]",1.29
16,"COc1ccc(C(=O)Nc2ccc(Cl)cc2C(=O)N/N=C/c2ccc(F)cc2)cc1OC [Compound 66, N-[4-Chloro-2-(4-fluoro-benzylidene-hydrazinocarbonyl)-phenyl]-3,4-dimethoxy-benzamide]",0.89
